Read-outs that look alike come from different tables or passages of the source.
Assays:
[1] = target: T1, CIB1 and αIIb interaction (CIB1-GST : F-αIIb peptide) (Homo sapiens, UniProt Q99828); assay: FP assay, 1536-well qHTS format (primary and confirmatory screen); type: binding; settings: for Curve Class (confirmatory screen) / CONFIRMATORY SCREEN Curve Class: qHTS curve class
T1 construct: made in house; host or cells: BL-21 plus RIL cells (E. coli)
T1 sequence (Q99828 1-191): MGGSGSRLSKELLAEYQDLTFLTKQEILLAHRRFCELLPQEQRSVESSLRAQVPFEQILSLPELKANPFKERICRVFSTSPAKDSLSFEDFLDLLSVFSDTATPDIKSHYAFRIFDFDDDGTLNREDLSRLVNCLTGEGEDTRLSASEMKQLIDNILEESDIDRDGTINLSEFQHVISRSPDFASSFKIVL

[2] = target: T2, GST-CIB1 : F-scrambled peptide (Homo sapiens, UniProt Q99828); assay: FP scrambled-peptide counter screen, 1536-well format; type: binding; settings: for IC50: read-out: IC50 [μM] (counterscreen); for Curve Class (counterscreen) / COUNTERSCREEN Curve Class: qHTS curve class
T2 construct: made in house; host or cells: BL-21 plus RIL cells (E. coli)
T2 sequence (Q99828 1-191): T1 sequence (Q99828 1-191)

[3] = Table S3, confirmatory screen, a negative sign marks inhibitory curves
[4] = Table S3, confirmatory screen, negative = inhibition
[5] = qHTS primary screen hits, Table S2, negative = inhibition
[6] = qHTS primary screen hits, Table S2, negative sign = inhibitory curve, several classes where COUNT > 1
[7] = qHTS primary screen hits, Table S2, read-out: IC50
[8] = Table S3, counterscreen, negative = inhibition
[9] = confirmatory screen, negative sign = inhibitory curve
[10] = confirmatory screen, read-out: IC50 [μM] (confirmatory screen)
[11] = counterscreen, negative sign = inhibitory curve
[12] = Table S3, counterscreen, YES/NO call
[13] = Table S3, counterscreen, a negative sign marks inhibitory curves
[14] = qHTS FP screen hits, Table S2, negative = inhibition
[15] = qHTS FP screen hits, Table S2, one class per curve where COUNT > 1, negative sign = inhibitory curve
[16] = qHTS FP screen hits, Table S2, read-out: IC50
[17] = qHTS primary screen hits, Table S2, negative sign = inhibitory curve

Row | Structure (SMILES) | Efficacy (%) [1, 5] | Curve Class [1, 6] | IC50 [1, 7] | Efficacy (%) (confirmatory screen) ([1]; confirmatory screen) | Confirm? (confirmatory screen) ([1]; confirmatory screen, YES/NO) | Curve Class (confirmatory screen) [1, 9] | IC50 [1, 10] | Efficacy (%) (counterscreen) ([2]; counterscreen) | Curve Class (counterscreen) [2, 11] | Efficacy (%) [1, 14] | IC50 [1, 16] | IC50 ([2]; counterscreen) | other results
1 | O=C(NC(c1ccco1)c1cc(Cl)c2cccnc2c1O)c1cccs1.O=C(O)C(F)(F)F (stereo not shown) [NCGC00188375-01] | -35% | -1.2 | 25.1 µM |  |  |  |  |  |  |  |  |  | Curve Class (confirmatory screen) [1, 3]: 4; Efficacy (%) (confirmatory screen) [1, 4]: 0%; Efficacy (%) (counterscreen) [2, 8]: 81%; IC50 ([2]; Table S3, counterscreen): 50.1 µM
2 | Cl.O=S(=O)(Nc1nccs1)c1ccc(NCc2cc(Cl)ccc2O)cc1 [NCGC00273561-01] | -27% | -1.4 | 20 µM | -48% | YES | -2.4 | 50.1 µM | -36% | 4 |  |  |  | Confirm? (counterscreen) ([2]; counterscreen, YES/NO): YES
3 | NC(=O)C1CCN(c2nc(-c3ccccc3N)cs2)CC1.O=C(O)C(F)(F)F [NCGC00183555-01] | -77% | -2.2 | 39.8 µM |  |  |  |  |  |  |  |  |  | Curve Class (confirmatory screen) [1, 3]: 4; Efficacy (%) (confirmatory screen) [1, 4]: -21%; Confirm? (counterscreen) [2, 12]: YES; Curve Class (counterscreen) [2, 13]: -1.4; Efficacy (%) (counterscreen) [2, 8]: -31%; IC50 ([2]; Table S3, counterscreen): 28.2 µM
4 | CN(C(=O)c1cccs1)c1cccnc1.O=C(O)C(F)(F)F [NCGC00241518-01] |  |  |  |  |  |  |  |  |  | -77% | 50.1 µM |  | Confirm? (confirmatory screen) ([1]; Table S3, confirmatory screen, YES/NO call): YES; Curve Class (confirmatory screen) [1, 3]: -1.1; Efficacy (%) (confirmatory screen) [1, 4]: -90%; IC50 ([1]; Table S3, confirmatory screen, read-out: IC50 [μM] (confirmatory screen)): 31.6 µM; Curve Class [1, 15]: -2.2; Curve Class (counterscreen) [2, 13]: -2.1; Efficacy (%) (counterscreen) [2, 8]: -118%; IC50 ([2]; Table S3, counterscreen): 44.7 µM
5 | CC(C)c1nc(Nc2nc3ccccc3o2)nc2c1CCCC2.O=C(O)C(F)(F)F [NCGC00188040-01] | -19% |  | 6.3 µM |  |  |  |  |  |  |  |  |  | Curve Class (confirmatory screen) [1, 3]: 4; Efficacy (%) (confirmatory screen) [1, 4]: -29%; Curve Class [1, 17]: -1.4; Confirm? (counterscreen) [2, 12]: YES; Curve Class (counterscreen) [2, 13]: -2.4; Efficacy (%) (counterscreen) [2, 8]: -36%; IC50 ([2]; Table S3, counterscreen): 22.4 µM
6 | O=C(O)c1csc(-n2nc(-c3ccc(F)c(F)c3)c3cccnc32)n1 [NCGC00356667-01] |  |  |  |  |  |  |  |  |  | -32% | 3.5 µM |  | Curve Class (confirmatory screen) [1, 3]: 4; Efficacy (%) (confirmatory screen) [1, 4]: -16%; Curve Class [1, 15]: -1.2; Curve Class (counterscreen) [2, 13]: 3; Efficacy (%) (counterscreen) [2, 8]: 64%; IC50 ([2]; Table S3, counterscreen): 89.1 µM
7 | CCN1CCN(c2ccc(Nc3ccc(-c4ccc(C(N)=O)cc4)n4ncnc34)cc2)CC1.O=C(O)C(F)(F)F [NCGC00249351-01] |  |  |  | -64% | YES | -2.4 | 22.4 µM | -68% | -2.2 | -39% | 35.5 µM | 50.1 µM | Curve Class [1, 15]: -2.2
8 | O=C(O)C(F)(F)F.O=C(O)c1ccc(O)c2ncc(N3CCC(N4CCOCC4)C3)cc12 (stereo not shown) [NCGC00241757-01] |  |  |  |  |  |  |  |  |  | -22% | 35.5 µM |  | CONFIRMATORY SCREEN Efficacy (%) ([1]; confirmatory screen): -17%; CONFIRMATORY SCREEN Curve Class ([1]; confirmatory screen): 4; COUNTERSCREEN Efficacy (%) ([2]; counterscreen): -21%; COUNTERSCREEN Curve Class ([2]; counterscreen): 4
9 | CC1(C)OB(c2ccc(O)c3ncc(N4CCNCC4)cc23)OC1(C)C.O=C(O)C(F)(F)F [NCGC00241053-01] | -78% | -2.2 | 50.1 µM | -132% | YES | -2.1 | 31.6 µM | -102% | -1.1 |  |  | 20 µM | 
10 | CCCCC(CC)CNC(=N)NC(=N)NCCCCCCNC(=N)NC(=N)NCC(CC)CCCC.Cl.Cl.Cl (stereo not shown) [NCGC00178352-06] |  |  |  | -86% | YES | -2.1 | 28.2 µM | 93% | 3 | -55% | 22.4 µM | 100 µM | Curve Class [1, 15]: -1.2; Confirm? (counterscreen) ([2]; counterscreen, YES/NO): YES
11 | CN1CCN(c2ccc(-c3cc(O)c4ncccc4c3)cc2)CC1.O=C(O)C(F)(F)F [NCGC00183803-01] |  |  |  |  |  |  |  |  |  | -51% | 39.8 µM |  | CONFIRMATORY SCREEN Efficacy (%) ([1]; confirmatory screen): -13%; CONFIRMATORY SCREEN Curve Class ([1]; confirmatory screen): 4; COUNTERSCREEN Efficacy (%) ([2]; counterscreen): -12%; COUNTERSCREEN Curve Class ([2]; counterscreen): 4
12 | CCOC(=O)c1c(-c2ccc(C)o2)csc1NC(=O)CSc1nnnn1-c1ccccc1.O=C(O)C(F)(F)F [NCGC00041785-02] | -58% | -1.2 | 28.2 µM | -47% | YES | -2.2 | 39.8 µM | -23% | 4 |  |  |  | Confirm? (counterscreen) ([2]; counterscreen, YES/NO): YES
13 | NC(=O)c1cccc(-c2cnc3c(O)ccc(C(=O)O)c3c2)c1.O=C(O)C(F)(F)F [NCGC00241055-01] | -35% |  | 31.6 µM |  |  |  |  |  |  |  |  |  | Curve Class (confirmatory screen) [1, 3]: 4; Efficacy (%) (confirmatory screen) [1, 4]: -31%; Curve Class [1, 17]: -2.4; Confirm? (counterscreen) [2, 12]: YES; Curve Class (counterscreen) [2, 13]: -2.4; Efficacy (%) (counterscreen) [2, 8]: -42%; IC50 ([2]; Table S3, counterscreen): 35.5 µM
14 | C=CC1=C(C)c2cc3[nH]c(cc4nc(cc5[nH]c(cc1n2)c(C)c5CCC(=O)O)C(CCC(=O)O)=C4C)c(C)c3C=C [NCGC00015844-07] |  |  |  | -112% | YES | -1.1 | 25.1 µM | -94% | -2.2 |  |  | 25.1 µM | 
15 | CC[C@@H](CO)NC(=O)[C@@H]1C=C2c3cccc4c3c(cn4C)C[C@H]2N(C)C1.O=C(O)/C=C\C(=O)O [NCGC00024027-06] |  |  |  | -88% | YES | -2.2 | 44.7 µM | -73% | -3 |  |  | 89.1 µM | 
16 | COc1cc(C=C2C(=O)Nc3ccccc32)cc(OC)c1O [NCGC00343740-01] | -53% | -2.2 | 44.7 µM | -81% | YES | -2.2 |  | -44% | -2.4 |  |  | 44.7 µM | 
17 | COc1ccccc1C(=O)/C=C1/C(=O)Nc2ccc(C)cc21.O=C(O)C(F)(F)F [NCGC00481357-01] | -43% | -1.2 | 14.1 µM | -59% | YES | -1.4 | 5.6 µM | -51% | -1.4 |  |  | 6.3 µM | 
18 | NC(=O)c1ccnc2c(O)cccc12.O=C(O)C(F)(F)F [NCGC00183783-01] | -40% |  | 20 µM | -22% | YES | -2.4 | 50.1 µM | -17% | 4 |  |  |  | Curve Class [1, 17]: -1.2; Confirm? (counterscreen) ([2]; counterscreen, YES/NO): YES
19 | CCOC(=O)CC(SP(=S)(OC)OC)C(=O)OCC (stereo not shown) [NCGC00091902-08] |  |  |  | -93% | YES | -2.2 | 100 µM | -27% | -1.4 | -52% | 119 µM | 20 µM | Curve Class [1, 15]: -2.2; Confirm? (counterscreen) ([2]; counterscreen, YES/NO): YES
20 | O=C(NC1=CC(=O)c2ccccc2C1=O)c1ccccc1.O=C(O)C(F)(F)F [NCGC00357425-01] | -92% |  | 25.1 µM | -159% | YES | -1.1 | 11.2 µM | -113% | -1.1 |  |  | 11.2 µM | Curve Class [1, 17]: -1.1
21 | COc1ccc2c(c[n+](C)c3c4cc5c(cc4ccc23)OCO5)c1OC.[Cl-] [NCGC00015225-03] |  |  |  | -56% | YES | -1.4 | 11.2 µM | -55% | -2.2 |  |  | 28.2 µM | 
22 | CCOc1ccc(CCNC(C)=O)cc1OCC.O=C(O)C(F)(F)F [NCGC00241413-01] |  |  |  |  |  |  |  |  |  | -45% | 39.8 µM |  | CONFIRMATORY SCREEN Efficacy (%) ([1]; confirmatory screen): -11%; CONFIRMATORY SCREEN Curve Class ([1]; confirmatory screen): 4; Curve Class [1, 15]: -2.2; COUNTERSCREEN Efficacy (%) ([2]; counterscreen): 0%; COUNTERSCREEN Curve Class ([2]; counterscreen): 4

— article PMC11249646, “Small-Molecule Disruptors of the Interaction between Calcium- and Integrin-Binding Protein 1 and Integrin αIIbβ3 as Novel Antiplatelet Agents” (ACS Pharmacology & Translational Science, 2024)
